Experiments:
Assay in all cases: KINOMEscan competition binding
AMPK-alpha1 = AMPK-alpha1 (Homo sapiens, UniProt Q13131); details: read-out: %Inh AMPK-alpha1
AURKA = target: T1, AURKA (Homo sapiens, UniProt O14965); details: read-out: %Inh AURKA
T1 sequence (O14965 1-403): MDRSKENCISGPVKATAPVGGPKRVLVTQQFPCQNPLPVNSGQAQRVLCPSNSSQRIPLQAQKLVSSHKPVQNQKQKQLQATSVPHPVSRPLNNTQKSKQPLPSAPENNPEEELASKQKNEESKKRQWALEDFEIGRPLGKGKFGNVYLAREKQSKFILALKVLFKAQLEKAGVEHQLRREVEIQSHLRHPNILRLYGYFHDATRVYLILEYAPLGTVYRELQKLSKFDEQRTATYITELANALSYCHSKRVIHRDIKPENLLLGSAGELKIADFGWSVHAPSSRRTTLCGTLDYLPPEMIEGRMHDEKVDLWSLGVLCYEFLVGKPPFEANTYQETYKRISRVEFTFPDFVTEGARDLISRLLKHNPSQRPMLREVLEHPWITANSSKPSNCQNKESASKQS

BRSK1 = target: T2, BRSK1 (Homo sapiens, UniProt Q8TDC3); details: read-out: %Inh BRSK1
T2 sequence (Q8TDC3 1-778): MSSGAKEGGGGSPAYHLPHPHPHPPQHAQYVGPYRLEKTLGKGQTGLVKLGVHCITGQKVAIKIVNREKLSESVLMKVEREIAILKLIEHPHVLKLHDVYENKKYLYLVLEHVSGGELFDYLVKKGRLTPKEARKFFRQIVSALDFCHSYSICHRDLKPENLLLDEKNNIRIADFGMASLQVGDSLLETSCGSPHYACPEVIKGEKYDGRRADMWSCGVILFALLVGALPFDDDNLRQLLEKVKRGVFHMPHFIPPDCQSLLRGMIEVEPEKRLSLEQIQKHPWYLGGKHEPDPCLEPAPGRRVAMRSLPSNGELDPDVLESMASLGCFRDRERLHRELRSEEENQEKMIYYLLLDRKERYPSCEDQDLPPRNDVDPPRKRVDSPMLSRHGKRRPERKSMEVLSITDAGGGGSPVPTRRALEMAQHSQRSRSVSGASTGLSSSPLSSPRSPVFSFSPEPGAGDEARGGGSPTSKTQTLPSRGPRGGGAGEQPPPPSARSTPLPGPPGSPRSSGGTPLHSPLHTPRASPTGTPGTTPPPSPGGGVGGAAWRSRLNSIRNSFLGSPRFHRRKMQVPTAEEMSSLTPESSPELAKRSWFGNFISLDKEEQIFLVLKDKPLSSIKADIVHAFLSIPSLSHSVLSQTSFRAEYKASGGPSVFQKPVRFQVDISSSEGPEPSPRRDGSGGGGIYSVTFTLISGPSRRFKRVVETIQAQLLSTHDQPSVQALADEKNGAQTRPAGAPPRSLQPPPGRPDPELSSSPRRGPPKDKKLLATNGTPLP

CDK4-cyclinD1 = CDK4-cyclinD1 (Homo sapiens, UniProt P11802); details: read-out: %Inh CDK4-cyclinD1
DAPK2 = DAPK2 (Homo sapiens, UniProt Q9UIK4); details: read-out: %Inh DAPK2
DAPK3 = DAPK3 (Homo sapiens, UniProt O43293); details: read-out: %Inh DAPK3
DDR1 = DDR1 (Homo sapiens, UniProt Q08345); details: read-out: %Inh DDR1
ERK4 = ERK4 (Homo sapiens, UniProt P31152); details: read-out: %Inh ERK4
FGFR3 = FGFR3 (Homo sapiens, UniProt P22607); details: read-out: %Inh FGFR3
IKK-epsilon = target: T3, IKK-epsilon (Homo sapiens, UniProt Q14164); details: read-out: %Inh IKK-epsilon
T3 sequence (Q14164 1-716): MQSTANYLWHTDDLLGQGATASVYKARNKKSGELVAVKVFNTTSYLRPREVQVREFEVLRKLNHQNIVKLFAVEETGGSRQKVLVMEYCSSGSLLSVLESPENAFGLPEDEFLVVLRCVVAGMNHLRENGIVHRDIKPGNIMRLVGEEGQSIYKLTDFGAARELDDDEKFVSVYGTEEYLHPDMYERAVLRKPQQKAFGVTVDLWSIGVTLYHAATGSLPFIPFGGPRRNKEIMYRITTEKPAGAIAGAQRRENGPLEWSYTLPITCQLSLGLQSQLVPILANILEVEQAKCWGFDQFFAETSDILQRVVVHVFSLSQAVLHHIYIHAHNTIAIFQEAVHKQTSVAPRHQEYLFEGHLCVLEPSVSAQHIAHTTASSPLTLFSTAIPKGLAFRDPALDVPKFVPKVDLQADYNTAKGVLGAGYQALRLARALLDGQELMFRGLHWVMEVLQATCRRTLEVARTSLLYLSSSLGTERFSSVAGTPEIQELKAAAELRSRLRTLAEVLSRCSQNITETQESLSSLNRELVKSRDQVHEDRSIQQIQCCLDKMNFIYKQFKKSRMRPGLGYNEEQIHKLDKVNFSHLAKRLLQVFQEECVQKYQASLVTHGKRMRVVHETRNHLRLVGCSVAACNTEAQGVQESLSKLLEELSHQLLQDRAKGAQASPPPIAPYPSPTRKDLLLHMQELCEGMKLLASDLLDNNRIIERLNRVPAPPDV

IRAK1 = IRAK1 (Homo sapiens, UniProt P51617); details: read-out: %Inh IRAK1
[1] = target: JAK3(JH1domain-catalytic) (Homo sapiens, UniProt P52333); details: read-out: %Inh JAK3(JH1domain-catalytic)
KIT = KIT (Homo sapiens, UniProt P10721); details: read-out: %Inh KIT
MAP3K1 = MAP3K1 (Homo sapiens, UniProt Q13233); details: read-out: %Inh MAP3K1

Chain of DDR1 (Q08345 19-913): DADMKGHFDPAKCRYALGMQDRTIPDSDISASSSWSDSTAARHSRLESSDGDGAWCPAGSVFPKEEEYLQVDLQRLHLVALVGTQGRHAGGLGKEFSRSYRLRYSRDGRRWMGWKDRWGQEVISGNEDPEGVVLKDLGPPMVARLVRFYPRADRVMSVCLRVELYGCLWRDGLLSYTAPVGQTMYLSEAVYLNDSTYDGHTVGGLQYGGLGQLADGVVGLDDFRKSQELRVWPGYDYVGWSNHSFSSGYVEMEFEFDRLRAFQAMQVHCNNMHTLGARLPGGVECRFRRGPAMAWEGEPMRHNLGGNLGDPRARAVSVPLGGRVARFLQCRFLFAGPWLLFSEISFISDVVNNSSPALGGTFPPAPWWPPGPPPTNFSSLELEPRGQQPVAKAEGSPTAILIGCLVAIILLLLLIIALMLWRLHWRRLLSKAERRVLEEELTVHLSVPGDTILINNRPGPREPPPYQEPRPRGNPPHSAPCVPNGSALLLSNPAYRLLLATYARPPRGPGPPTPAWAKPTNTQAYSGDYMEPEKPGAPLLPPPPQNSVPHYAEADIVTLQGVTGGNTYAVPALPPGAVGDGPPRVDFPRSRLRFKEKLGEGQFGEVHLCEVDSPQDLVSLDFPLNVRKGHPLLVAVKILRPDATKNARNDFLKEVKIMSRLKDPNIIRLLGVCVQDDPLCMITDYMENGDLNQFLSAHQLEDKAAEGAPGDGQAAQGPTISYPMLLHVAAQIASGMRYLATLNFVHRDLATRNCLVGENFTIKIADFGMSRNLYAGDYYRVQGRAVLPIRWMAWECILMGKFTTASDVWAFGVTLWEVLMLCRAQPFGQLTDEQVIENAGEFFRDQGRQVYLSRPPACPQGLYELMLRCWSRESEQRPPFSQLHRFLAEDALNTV
Chain of IRAK1 (P51617 whole entry): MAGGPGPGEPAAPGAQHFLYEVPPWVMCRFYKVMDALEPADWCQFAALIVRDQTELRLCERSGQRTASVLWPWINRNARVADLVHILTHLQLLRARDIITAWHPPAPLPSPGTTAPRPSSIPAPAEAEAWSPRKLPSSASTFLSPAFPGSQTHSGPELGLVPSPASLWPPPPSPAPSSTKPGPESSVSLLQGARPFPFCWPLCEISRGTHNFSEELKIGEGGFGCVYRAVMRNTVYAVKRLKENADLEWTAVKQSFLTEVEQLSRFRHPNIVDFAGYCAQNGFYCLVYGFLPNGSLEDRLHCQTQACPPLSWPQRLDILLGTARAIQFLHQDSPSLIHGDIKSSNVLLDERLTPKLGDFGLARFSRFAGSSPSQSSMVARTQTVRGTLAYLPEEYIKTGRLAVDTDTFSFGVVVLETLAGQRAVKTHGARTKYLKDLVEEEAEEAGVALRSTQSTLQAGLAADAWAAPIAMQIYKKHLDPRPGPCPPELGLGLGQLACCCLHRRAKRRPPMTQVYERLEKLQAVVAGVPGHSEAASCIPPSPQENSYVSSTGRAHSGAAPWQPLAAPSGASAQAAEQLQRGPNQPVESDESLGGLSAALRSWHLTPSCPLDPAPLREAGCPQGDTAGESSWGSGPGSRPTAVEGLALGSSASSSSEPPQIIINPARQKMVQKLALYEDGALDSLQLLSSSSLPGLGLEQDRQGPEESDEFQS
Chain of JAK3(JH1domain-catalytic) (P52333 813-1124 limits assumed): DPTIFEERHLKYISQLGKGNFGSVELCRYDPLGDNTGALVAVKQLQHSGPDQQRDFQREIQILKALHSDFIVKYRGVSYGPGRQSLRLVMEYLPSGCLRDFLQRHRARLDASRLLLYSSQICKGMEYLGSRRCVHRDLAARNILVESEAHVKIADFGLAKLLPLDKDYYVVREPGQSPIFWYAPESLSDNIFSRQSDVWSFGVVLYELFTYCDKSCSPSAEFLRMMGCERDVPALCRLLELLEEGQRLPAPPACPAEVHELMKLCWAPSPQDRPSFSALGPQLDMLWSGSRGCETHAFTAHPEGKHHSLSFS
Chain of FGFR3 (P22607 23-806): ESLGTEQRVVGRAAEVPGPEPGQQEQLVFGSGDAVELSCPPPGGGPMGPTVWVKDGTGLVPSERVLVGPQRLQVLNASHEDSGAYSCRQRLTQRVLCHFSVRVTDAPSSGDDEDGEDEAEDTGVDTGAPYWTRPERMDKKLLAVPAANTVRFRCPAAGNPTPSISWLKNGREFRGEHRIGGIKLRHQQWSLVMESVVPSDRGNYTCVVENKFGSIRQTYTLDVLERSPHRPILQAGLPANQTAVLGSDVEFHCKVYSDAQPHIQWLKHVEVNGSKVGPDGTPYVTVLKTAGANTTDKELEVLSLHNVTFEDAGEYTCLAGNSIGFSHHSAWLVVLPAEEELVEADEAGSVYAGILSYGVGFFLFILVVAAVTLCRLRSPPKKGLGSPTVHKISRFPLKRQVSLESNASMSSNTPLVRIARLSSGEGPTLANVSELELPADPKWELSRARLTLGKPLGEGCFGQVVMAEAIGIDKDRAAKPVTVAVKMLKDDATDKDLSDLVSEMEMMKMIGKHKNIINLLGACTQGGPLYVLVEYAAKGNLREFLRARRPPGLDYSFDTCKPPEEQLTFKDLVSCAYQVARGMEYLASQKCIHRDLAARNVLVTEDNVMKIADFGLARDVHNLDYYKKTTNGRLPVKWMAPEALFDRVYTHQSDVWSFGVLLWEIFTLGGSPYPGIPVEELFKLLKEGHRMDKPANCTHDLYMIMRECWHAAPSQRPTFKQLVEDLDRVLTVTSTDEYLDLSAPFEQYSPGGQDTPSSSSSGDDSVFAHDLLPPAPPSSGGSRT
Chain of KIT (P10721 26-976): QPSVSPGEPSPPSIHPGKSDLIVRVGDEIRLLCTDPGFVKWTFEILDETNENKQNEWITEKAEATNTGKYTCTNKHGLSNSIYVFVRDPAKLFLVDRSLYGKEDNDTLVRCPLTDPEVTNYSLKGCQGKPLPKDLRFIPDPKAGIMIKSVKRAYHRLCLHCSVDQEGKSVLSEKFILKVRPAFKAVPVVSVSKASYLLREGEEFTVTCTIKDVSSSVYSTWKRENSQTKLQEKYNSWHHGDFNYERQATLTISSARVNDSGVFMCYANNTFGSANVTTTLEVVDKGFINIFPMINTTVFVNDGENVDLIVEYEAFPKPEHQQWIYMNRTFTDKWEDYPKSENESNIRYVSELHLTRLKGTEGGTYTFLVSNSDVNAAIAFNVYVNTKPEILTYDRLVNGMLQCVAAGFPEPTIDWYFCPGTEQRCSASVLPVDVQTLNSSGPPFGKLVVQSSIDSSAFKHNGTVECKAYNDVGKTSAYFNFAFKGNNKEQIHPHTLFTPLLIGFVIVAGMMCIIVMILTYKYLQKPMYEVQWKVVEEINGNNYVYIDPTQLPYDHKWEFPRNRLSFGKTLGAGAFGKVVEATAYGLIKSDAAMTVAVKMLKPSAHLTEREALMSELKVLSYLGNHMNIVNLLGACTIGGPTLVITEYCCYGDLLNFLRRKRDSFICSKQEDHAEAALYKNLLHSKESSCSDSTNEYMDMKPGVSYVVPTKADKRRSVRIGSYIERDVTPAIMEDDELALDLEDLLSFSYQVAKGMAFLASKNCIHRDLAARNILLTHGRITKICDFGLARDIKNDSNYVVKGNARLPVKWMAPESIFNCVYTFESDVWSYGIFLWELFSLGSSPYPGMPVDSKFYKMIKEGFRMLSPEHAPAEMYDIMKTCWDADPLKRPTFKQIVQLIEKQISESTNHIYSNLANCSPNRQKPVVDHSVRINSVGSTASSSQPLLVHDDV
Chain of DAPK3 (O43293 whole entry): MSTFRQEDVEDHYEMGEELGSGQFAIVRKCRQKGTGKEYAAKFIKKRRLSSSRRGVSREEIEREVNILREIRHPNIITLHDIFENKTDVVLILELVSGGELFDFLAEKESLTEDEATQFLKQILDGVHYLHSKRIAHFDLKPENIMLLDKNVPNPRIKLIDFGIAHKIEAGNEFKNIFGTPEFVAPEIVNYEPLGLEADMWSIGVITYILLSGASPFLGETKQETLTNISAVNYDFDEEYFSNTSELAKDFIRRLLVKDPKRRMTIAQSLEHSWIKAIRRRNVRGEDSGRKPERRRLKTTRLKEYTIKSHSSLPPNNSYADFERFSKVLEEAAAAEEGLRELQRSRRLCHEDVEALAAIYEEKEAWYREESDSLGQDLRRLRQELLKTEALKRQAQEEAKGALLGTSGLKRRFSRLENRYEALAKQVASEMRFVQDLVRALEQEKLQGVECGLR
Chain of DAPK2 (Q9UIK4 whole entry): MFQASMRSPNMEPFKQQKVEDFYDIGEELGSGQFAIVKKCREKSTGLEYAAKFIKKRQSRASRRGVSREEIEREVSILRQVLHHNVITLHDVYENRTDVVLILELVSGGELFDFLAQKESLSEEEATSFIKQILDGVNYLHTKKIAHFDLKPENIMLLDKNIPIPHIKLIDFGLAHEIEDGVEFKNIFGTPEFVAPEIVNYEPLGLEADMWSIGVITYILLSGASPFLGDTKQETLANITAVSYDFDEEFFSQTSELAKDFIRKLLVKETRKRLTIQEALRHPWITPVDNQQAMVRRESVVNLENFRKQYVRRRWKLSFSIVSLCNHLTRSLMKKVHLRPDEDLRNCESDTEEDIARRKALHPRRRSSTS
Chain of AMPK-alpha1 (Q13131 whole entry): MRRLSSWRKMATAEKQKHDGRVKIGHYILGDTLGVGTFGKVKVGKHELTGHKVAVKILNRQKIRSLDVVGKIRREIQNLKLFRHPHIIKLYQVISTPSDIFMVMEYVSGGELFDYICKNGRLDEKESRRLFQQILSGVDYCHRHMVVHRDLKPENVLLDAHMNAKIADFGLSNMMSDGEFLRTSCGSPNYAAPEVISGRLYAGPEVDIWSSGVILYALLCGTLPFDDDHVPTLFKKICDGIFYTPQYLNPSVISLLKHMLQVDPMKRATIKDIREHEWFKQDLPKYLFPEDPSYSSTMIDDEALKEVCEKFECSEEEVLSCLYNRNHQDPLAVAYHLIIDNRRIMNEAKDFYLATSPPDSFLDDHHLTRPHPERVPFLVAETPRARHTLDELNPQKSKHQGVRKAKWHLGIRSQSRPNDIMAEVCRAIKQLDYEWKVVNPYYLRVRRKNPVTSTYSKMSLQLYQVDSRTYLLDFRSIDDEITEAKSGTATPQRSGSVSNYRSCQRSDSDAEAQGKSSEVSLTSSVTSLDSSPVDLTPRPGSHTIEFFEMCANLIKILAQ

Row | SMILES | inhibition at 1 µM (AMPK-alpha1) [%] | inhibition at 1 µM (AURKA) [%] | inhibition at 1 µM (BRSK1) [%] | inhibition at 1 µM (CDK4-cyclinD1) [%] | inhibition at 1 µM (DAPK2) [%] | inhibition at 1 µM (DAPK3) [%] | inhibition at 1 µM (DDR1) [%] | inhibition at 1 µM (ERK4) [%] | inhibition at 1 µM (FGFR3) [%] | inhibition at 1 µM (IKK-epsilon) [%] | inhibition at 1 µM (IRAK1) [%] | inhibition at 1 µM [1] [%] | inhibition at 1 µM (KIT) [%] | inhibition at 1 µM (MAP3K1) [%]
1 | Cn1cc(-c2cnc(N)c3c(-c4ccc5c(c4)CCN5C(=O)Cc4ccccc4)csc23)cn1 [UNC10225012A] | 17 | 24 | 0 | 0 | 21 | 7 | 97.7 | 0 | 49 | 59 | 0 | 0 | 100 | 4
2 | CS(=O)(=O)Cc1ccc(Nc2nccc(-c3c(-c4cccc(NC(=O)C5CCCCC5)c4)nn4ncccc34)n2)cc1 [UNC10225159A] | 2 | 9 | 0 | 15 | 9 | 0 | 96.6 | 3 | 16 | 32 | 24 | 43 | 88 | 30
3 | Cc1ccc(NC(=O)Nc2cccc(C(F)(F)F)c2)cc1 [UNC10225187A] | 0 | 0 | 0 | 0 | 3 | 24 | 43 | 0 | 5 | 0 | 0 | 0 | 91.4 | 0
4 | COc1cccc(OC)c1C(=O)Nc1cccc(-c2nn3ccccc3c2-c2ccnc(Nc3cccc(F)c3)n2)c1 [UNC10225310A] | 25 | 32 | 0 | 0 | 6 | 0 | 99.3 | 9 | 0 | 4 | 0 | 0 | 90.9 | 0
5 | O=c1cc(N2CCOCC2)nc2n(Cc3cccc(Cl)c3Cl)c(C3CC3)nn12 [UNC10225469A] | 5 | 0 | 3 | 0 | 12 | 6 | 21 | 0 | 0 | 0 | 0 | 0 | 0 | 14

Source: PMC5540273, “Progress towards a public chemogenomic set for protein kinases and a call for contributions” (PLoS ONE, 2017)
